Usually EC50 stands for the concentration giving half of the maximal effect.

Data set [1] concerns dopamine turnover in mice striatum. Put plainly: Dopamine, DOPAC and HVA content / dopamine turnover in mice striatum (HPLC-ECD). The format is in vivo, C57BL/6 mice. Particulars: oral; for dopamine turnover: monotherapy vs combination, mice striatum (FIG. 3).
Description: C57BL/6 mice (SLC, Shizuoka, Japan) were used for the experiment. […] The two drugs were orally administered by gavage 1 hour before sampling. At the time the mice were sacrificed, both striata were rapidly dissected and were frozen by liquid nitrogen. The samples were subsequently sonicated in 0.5 ml of chilled 0.5 M perchloric acid containing 0.1 M EDTA, and centrifuged at 13000 rpm for 15 min at 4° C. Then monoamine levels were measured by HPLC with electrochemical detection. Supernatant aliquots of 20 μl were separated over an Eicompak SC5-ODS column (3×150 mm; Eicom, Japan) with mobile phase of 17% methanol, 83% 0.1M acetate/citrate buffer (pH 3.5) containing 190 mg/ml sodium 1-octanesulfonate and 50 mg/ml EDTA, and a flow rate of 0.65 ml/min. Peaks of dopamine, DOPAC, HVA, 5-HT, and 5-HIAA were quantified by area integration with PowerChrom (eDAQ, Australia), and concentrations were expressed as nanograms per milligram of striatal tissue.
Data set [2] deals with duroquinone-induced injury in CA1 region of organotypic hippocampal slice cultures. The experiment in a line: Free radical-mediated toxicity (duroquinone) in organotypic hippocampal slice cultures. The format is cell-based, Wistar rat. Particulars: 100 μM duroquinone 3 hours, duroquinone alone 51.0±3.4%. How it is done:
(§1) Organotypic hippocampal slice cultures were prepared using the basic method of Pringle et al, Brain Research, 755:36-46 (1997) modified as follows. Wistar rat pups (8-11 days old) were decapitated and the hippocampus rapidly dissected into ice-cold Gey's balanced salt solution supplemented with 4.5 mg/ml glucose. Transverse sections (400 μm) were cut on a McIlwain tissue chopper and placed back into ice-cold Gey's balanced salt solution. Slices were separated and plated onto Millicell CM culture inserts (4 per well) and maintained at 37° C./5% CO2 for 14 days. […] Medium was changed every 3-4 days.
PI fluorescence was detected using a Leica DMIL inverted microscope fitted with a rhodamine filter set. Any cultures in which PI fluorescence was detected at this stage were excluded from further study. […] Neuronal damage was assessed by PI fluorescence imaging 24 hours after the initiation of the neurotoxic insult. Neurotoxicity protocols are outlined below. […]
(§2) Neuronal damage was assessed using ImageJ software running on a PC. […] Light transmission images were captured prior to the addition of drugs, and PI fluorescence images recorded at the end of the 24-hour recovery period. The area of the CA1 region was determined from the transmission image. […]

Data set [3] concerns hypoxia-induced neurodegeneration in CA1 region of organotypic hippocampal slice cultures. The experiment in a line: Hypoxia-induced neurodegeneration in organotypic hippocampal slice cultures. The format is cell-based, Wistar rat. The protocol: as §1
(§3) PI fluorescence was detected using a Leica DMIL inverted microscope fitted with a rhodamine filter set. Any cultures in which PI fluorescence was detected at this stage were excluded from further study. […] Neuronal damage was assessed by PI fluorescence imaging 24 hours after the initiation of the neurotoxic insult. Neurotoxicity protocols are outlined below.
(3) Hypoxia: Hypoxia was performed by exposing cultures to oxygen-deprivation as described previously. Pringle et al, Brain Research, 755:36-46 (1997); Pringle et al, Stroke, 27:2124-2130 (1996). Hypoxia was induced by transferring cultures to SFM (+PI) which had been saturated with 95% N2/5% CO2. Culture plates (without lids) were then sealed into an airtight chamber in which the atmosphere was saturated with 95% N2/5% CO2 by continuously blowing through gas at 10 L/min for ten minutes before being sealed and placed in the incubator for 170 mins (total time of hypoxia was therefore 180 mins). At the end of the period of hypoxia, cultures were returned to normoxic SFM (+PI) and placed back in the incubator for 21 hours. The freeradical scavenger MnTBAP (100 μM) was used as a positive neuroprotective control.
(§4) Neuronal damage was assessed using ImageJ software running on a PC. Images were captured using a monochrome CCD camera and saved for otlline analysis. Light transmission images were captured prior to the addition of drugs, and PI fluorescence images recorded at the end of the 24-hour recovery period. The area of the CA1 region was determined from the transmission image. The area of PI fluorescence in the CA1 was measured using the threshold function on ImageJ, and neuronal damage expressed as the percentage of the CA1 in which PI fluorescence was detected above background. Morrison et al, Br. J. Pharmacol., 137:1255-1268 (2002).

The test system of data set [4] is NMDA-induced neurotoxicity in CA1 region of organotypic hippocampal slice cultures. The experiment in a line: NMDA-induced neurotoxicity in organotypic hippocampal slice cultures. The class given is cell-based, Wistar rat. Particulars: 10 μM NMDA 3 hours, NMDA alone 35.1±[…]. The protocol: as §1, §3
At the end of this period, cultures were returned to fresh SFM for 21 hours prior to determination of neuronal death by PI imaging.
as §2

The subject of data set [5] is OGD-induced neurotoxicity in CA1 region of organotypic hippocampal slice cultures. The experiment in a line: Oxygen-glucose deprivation (OGD) in organotypic hippocampal slice cultures (PI fluorescence in CA1). The format is cell-based, Wistar rat. How it is done:
as §1, §3
(2) Oxygen-Glucose Deprivation (OGD): Experimental ischaemia was performed by exposing cultures to oxygen-glucose deprivation (OGD) as described previously. Pringle et al, Brain Research, 755:36-46 (1997); Pringle et al, Stroke, 27:2124-2130 (1996); Morrison et al, Br. J. Pharmacol., 137:1255-1268 (2002). OGD was induced by transferring cultures to glucose-free SFM (+PI) which had been saturated with 95% N2/5% CO2. Culture plates (without lids) were then sealed into an airtight chamber in which the atmosphere was saturated with 95% N2/5% CO2 by continuously blowing through gas at 10 L/min for ten minutes before being sealed and placed in the incubator for 50 mins (total time of OGD was therefore 60 mins). At the end of the period of OGD cultures were returned to normoxic SFM containing PI and placed back in the incubator for 23 hours.
as §4

The subject of data set [6] is NMDA-induced neural toxicity in cortical neurons. The experiment in a line: NMDA-induced neural toxicity in cortical neurons (LDH release). To be noted: 200 μM NMDA 24 h. The format is cell-based, rat (Wistar, fetal). The protocol:
The cortical tissues were dissociated to single cells by gentle trituration. […] The cell suspension was centrifuged at 310×g for 3 min and the resulting pellets were resuspended in the medium described above.
For orientation: LDH leaks from cells whose membrane has failed.

In data set [7] the test system is AMPA-mediated neurodegeneration in CA1 region of organotypic hippocampal slice cultures. The experiment in a line: AMPA toxicity in organotypic hippocampal slice cultures (PI fluorescence in CA1). The class given is cell-based, Wistar rat. How it is done: as §1, §3
(1) AMPA: Cultures were transferred to fresh SFM (+PI) containing 30 μM S-AMPA for 3 hours under normal culture conditions. At the end of this period, cultures were returned to fresh SFM for 21 hours prior to determination of neuronal death by PI imaging. GYK152466 (30 μM) was used as a positive, neuroprotective control.
as §4

The conditions of data set [8]: C57BL/6, mouse, in vivo, po, 1 h.
Setting [9] is: 1 hour before sampling (FIG. 2).

Regarding `N#Cc1ccccc1-c1cc(-c2ccccn2)cn(-c2ccccc2)c1=O` [2-(2-oxo-1-phenyl-5-pyridin-2-yl-1,2-dihydropyridin-3-yl)benzonitrile], the “content of HVA in striatum” value in data set [1] (1 mg/kg, 1 hour before sampling (FIG. 1)) is listed as “elevated”. Moreover, in data set [1], the dopamine turnover result was “modulated dopamine turnover but neither reached significance”. The “damage in CA1 (PI fluorescence)” value amounted to 69.1±4.0% in data set [2] (0.5 μM); 24.8±6.3% in data set [3] (0.1 μM, 3 hours hypoxia, first set, hypoxia alone 45.1±3.5%); 36.7±4.2% in data set [3] (0.1 μM, hypoxia, second set, hypoxia alone 36.4±[…]); 27.1±3.5% in data set [3] (0.5 μM, hypoxia, repeated experiment, hypoxia alone 36.9+[…]); 3.9±1.8% in data set [3] (5 μM, 3 hours hypoxia, first set, hypoxia alone 45.1±3.5%); 29.1±2.9% in data set [4] (0.5 μM). For the same compound, the “damage in CA1 (PI fluorescence)” value is listed as 64.4±3.6% in data set [5] (0.1 μM, 60 minutes OGD, initial set, OGD alone 50.6±5.2%); 55.3±3.1% in data set [5] (0.5 μM, OGD second series, OGD alone 44.8±[…]); 63.9±2.6% in data set [7] (0.1 μM, 30 μM AMPA 3 hours, AMPA alone 65.1±1.7%); 50.4±2.5% in data set [7] (0.3 μM, 30 μM AMPA 3 hours, AMPA alone 65.1±1.7%); 0.1±0.1% in data set [7] (3 μM, 30 μM AMPA 3 hours, AMPA alone 65.1±1.7%). Besides, the “effect on OGD-induced PI fluorescence” value in data set [5] (any other concentration assessed (up to 3 μM), 60 minutes OGD) is listed as “no significant effect”. The “EC50 in OGD model” value in data set [5] (six-point concentration-response curve, 60 minutes OGD) is “could not be established”. In addition, in data set [6], the “concentration from which the effect reached a plateau” value is reported as ≥ 0.3 mM. The “neuronal survival (LDH release)” value in data set [6] (drugs 24 hours before and during exposure (FIG. 5)) is reported as “showed effects”. Further, the “area of PI fluorescence, % of CA1” value in data set [7] (0.5 μM, 30 μM AMPA, AMPA alone 62.4±[…]) is 33.6±4.0%. In addition, in data set [7] (Rattus norvegicus, 3 h, read-out: EC50 in this model of AMPA toxicity), the EC50 was 0.5 µM.
Consider `COc1cc2c(cc1OC)C(=O)C(CC1CCN(Cc3ccccc3)CC1)C2` (stereo not shown) [donepezil, 1-benzyl-4-((5,6-dimethoxy-1-indanon)-2-yl)methylpiperidine], for which the dopamine turnover entry in data set [1] was “modulated dopamine turnover but neither reached significance”. In data set [1] (setting [9]), the DPAC/DA entry is on record as “increased significantly”, the HVA/DA entry was “increased significantly” and the “content of dopamine in striatum” value is “reduced the content of dopamine significantly”. In addition, the “dose at which peripheral side effect was shown” value in data set [8] is listed as ≥ 7.5 mg/kg.
`CC1=NN=C(c2ccc(N)cc2)c2cc3c(cc2C1)OCO3` [GYK152466, reference compound]: the “damage in CA1 (PI fluorescence)” value was determined as 36.9±3.6% in data set [5] (30 μM, 60 minutes OGD, initial set, OGD alone 50.6±5.2%); 14.3±2.3% in data set [7] (30 μM test substance, 30 μM AMPA 3 hours, AMPA alone 65.1±1.7%); 21.7±2.7% in data set [7] (30 μM, pre-incubation time experiments, AMPA alone 46.5±5.0%).
On to `C[C@]12N[C@H](Cc3ccccc31)c1ccccc12` [MK-801, reference compound], for which the “damage in CA1 (PI fluorescence)” value in data set [4] (10 μM) is reported as 0.0±0.0%.
Take `O=C(O)c1ccc(/C2=C3\C=CC(=N3)/C(c3ccc(C(=O)O)cc3)=c3/cc/c4[n]3[Mn]([Cl])[n]3c2ccc3/C(c2ccc(C(=O)O)cc2)=C2/C=CC(=N2)\C=4c2ccc(C(=O)O)cc2)cc1` [MnTBAP, reference compound]: the “damage in CA1 (PI fluorescence)” value in data set [2] (100 μM) is 0.1±0.0%; in data set [3] (100 μM, 3 hours hypoxia, first set, hypoxia alone 45.1±3.5%) it was 0.2±0.1%; in data set [3] (100 μM, hypoxia, repeated experiment, hypoxia alone 36.9+[…]) it was 0.8±0.4%; in data set [3] (100 μM, hypoxia, second set, hypoxia alone 36.4±[…]), 0.0±0.0%; in data set [5] (100 μM, 60 minutes OGD, initial set, OGD alone 50.6±5.2%), 0.1±0.0%; in data set [5] (100 μM, OGD second series, OGD alone 44.8±[…]), 0.6±0.2%.
